Measured values reported in publication PMC10689823, “Discovery of a Drug-like, Natural Product-Inspired DCAF11 Ligand Chemotype” (Nature Communications, 2023).
Several values for one entry are separate records, joined by “and”; a condition that tells them apart may be missing. Identical values can stand only once.

Legend:
Format in all cases: cell-based
[1] = biological target: PDEδ (Homo sapiens, UniProt O43924); test: PDEδ levels by Western blot in Jurkat cells; design: endogenous in cells; host or cells: Jurkat; details: 6 h; for PDEδ degradation activity compared with degrader 5: 10 μM
Chain of PDEδ (O43924 whole entry): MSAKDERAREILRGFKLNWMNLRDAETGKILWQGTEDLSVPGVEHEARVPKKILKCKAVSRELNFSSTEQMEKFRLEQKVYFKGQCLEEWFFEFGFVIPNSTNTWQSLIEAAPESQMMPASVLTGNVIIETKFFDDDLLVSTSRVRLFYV

[2] = biological target: T1, BRD2 (Homo sapiens, UniProt P25440); test: BRD2 levels by Western blot in Jurkat cells; design: endogenous in cells; host or cells: Jurkat; Hep G2; MDA-MB-231; KBM7 (WT, DCAF11 KO, DDB1 KO)
T1 sequence (P25440 whole entry): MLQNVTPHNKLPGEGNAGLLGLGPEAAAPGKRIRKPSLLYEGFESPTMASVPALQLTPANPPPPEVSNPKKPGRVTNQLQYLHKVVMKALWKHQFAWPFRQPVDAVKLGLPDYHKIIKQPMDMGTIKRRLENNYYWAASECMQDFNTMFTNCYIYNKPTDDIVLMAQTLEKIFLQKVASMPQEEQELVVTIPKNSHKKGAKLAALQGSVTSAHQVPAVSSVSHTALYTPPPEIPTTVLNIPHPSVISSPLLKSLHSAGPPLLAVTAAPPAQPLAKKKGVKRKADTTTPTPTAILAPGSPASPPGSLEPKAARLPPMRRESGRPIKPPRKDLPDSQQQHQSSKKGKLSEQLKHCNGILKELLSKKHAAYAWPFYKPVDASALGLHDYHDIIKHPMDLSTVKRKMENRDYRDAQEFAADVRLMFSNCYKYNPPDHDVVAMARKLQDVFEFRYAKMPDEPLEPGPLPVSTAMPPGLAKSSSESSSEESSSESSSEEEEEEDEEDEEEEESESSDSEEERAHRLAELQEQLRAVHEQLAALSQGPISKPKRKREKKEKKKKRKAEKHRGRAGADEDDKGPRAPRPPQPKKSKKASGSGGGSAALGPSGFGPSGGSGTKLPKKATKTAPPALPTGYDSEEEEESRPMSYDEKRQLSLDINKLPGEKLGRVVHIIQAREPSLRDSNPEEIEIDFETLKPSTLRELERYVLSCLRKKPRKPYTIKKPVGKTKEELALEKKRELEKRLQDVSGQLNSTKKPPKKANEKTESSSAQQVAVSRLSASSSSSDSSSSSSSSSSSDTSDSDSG
Method: (§1) Cells were washed with PBS and lysed in lysis buffer (50 mM Tris-HCl, pH 7.4, 150 mM NaCl, 1% Triton X-100, 1% sodium deoxycholate, 0.1% SDS) with complete protease inhibitor cocktail (Roche, 11836170001) for 30 min on ice. For Ramos cells, cell pellets were lysed in lysis buffer (50 mM Tris-HCl, pH 8, 150 mM NaCl, 1% NP-40, 0.5% sodium deoxycholate) with complete protease inhibitor cocktail. After centrifugation at 16,000 x g, the supernatant was transferred into a new tube and the protein concentration was determined by DC protein assay (BIO-RAD, 5000116). Proteins were separated by SDS-PAGE and transferred to a PVDF membrane (Thermo scientific, 0.45 μm, 88518). For PDEδ, BRD2, GAPDH, BRD4, Vinculin and BTK, the membranes were blocked with Intercept® Blocking Buffer (LI-COR Biosciences, 927-70001) at room temperature for 1 h. The primary antibodies for these proteins were diluted with Intercept® Blocking Buffer (1:500 for PDEδ, 1:3000 for Vinculin, and 1:1000 for other proteins) and incubated with the membranes overnight at 4 °C. Membranes were washed with PBS + 0.1% Tween 20 (PBS-T) five times and incubated with secondary antibodies conjugated to IRDye® Infrared Fluorescent Dyes (1:5000, LI-COR Biosciences) at room temperature for 1 h with protection from light. After washing the membrane, signals were visualized using the ChemiDoc MP Imaging System (BIO-RAD Laboratories). For detection of LC3B, BRD3, BLK, DCAF11, DDB1 RBX1, FIP200, V5- and FLAG-Tag the membranes were blocked with 5% milk in PBS-T at room temperature for 1 h. The primary antibodies for these proteins were diluted in 5% milk in PBS-T buffer (1:200 for BRD3, 1:1000 for other proteins) and incubated with the membranes overnight at 4 °C. Membranes were washed with PBS-T five times and incubated with HRP secondary antibodies (1:1500) at room temperature for 1 h. After washing the membrane, protein detection was performed using Western blotting detection reagent (Thermo Scientific, 34095) and the ChemiDoc MP Imaging System (BIO-RAD). Relative band intensities were quantified using Image Lab (BIO-RAD).

[3] = biological target: T1, BRD2; test: BRD2 levels by Western blot in KBM7 cells (WT, DCAF11 knockout, DDB1 knockout); design: endogenous in cells; host or cells: KBM7 (WT, DCAF11 KO, DDB1 KO); details: 9 at 3 μM, 10 at 10 μM, 11 at 10 μM; 6 h
Method: as §1
DCAF11- or FIP200 (RB1CC1)-targeting sgRNAs were lentivirally packaged using PEI transfection of Lenti-X cells. The viral supernatant was harvested after 72 h, cleared of cellular debris by filtration through a 0.45-µm PES filter and stored in aliquots at −80 °C. The appropriate amount of viral supernatant was transduced into KBM7 cells (1 × 10^6 cells/mL) via spinfection (2000 rpm, 1 h, 37 °C) with polybrene (8 µg/mL). Two days post transduction, the cells were selected with puromycin (1 µg/mL) for a total of 5 days, after which the knockout pools were validated via western blotting.

[4] = test system: Jurkat cells; test: Cell viability assay (CellTiter-Glo) in Jurkat cells; details: for Relative cell viability (%): Jurkat cells, 72 h, Fig. 4k; for Cell viability (%) relative to DMSO: individual replicates, Supplementary Fig. 7g
Method: (§2) Jurkat cells (3 × 10^3) and Hep G2 cells (3.5 × 10^3) were seeded in 96-well plates in 100 μL culture medium. Cells were treated with compounds dissolved in 50 μl medium at the indicated concentration for 72 h, at the same time, one plate of cells without compounds treatment was used for the cell count at time zero. After adding 40 μl of CellTiter-Glo® reagent (Promega, G7571) to each well for 10 min at room temperature, the luminescence was measured on a Spark® Multimode Microplate Reader (Tecan). The data was analyzed by the GraphPad Prism 9.0.

[5] = as above; details: human, Jurkat cells
Method: as §2

Cc1ccc(-n2nc3c(=O)n(CCCC(=O)NCCc4ccc(C(=O)NCCOCCOCCOCCOc5c(Br)cc(/C=C6\C(=O)Nc7ccc(I)cc76)cc5Br)cc4)nc(C)c3c2C)cc1 [Compound 6, (Z)-N-(2-(2-(2-(2-(2,6-dibromo-4-((5-iodo-2-oxoindolin-3-ylidene)methyl)phenoxy)ethoxy)ethoxy)ethoxy)ethyl)-4-(2-(4-(3,4-dimethyl-7-oxo-2-(p-tolyl)-2,7-dihydro-6H-pyrazolo[3,4-d]pyridazin-6-yl)butanamido)ethyl)benzamide]
remaining activity at 10 µM ([1]; Jurkat, DMSO pretreatment 2 h, then 10 μM, 6h, Fig. 1h, read-out: PDEδ/Vinculin intensity (relative to DMSO control group)): 55.4%

Cc1sc2c(c1C)C(c1ccc(Cl)cc1)=N[C@@H](CC(=O)NCCOCCOCCOCCOc1c(Br)cc(/C=C3\C(=O)Nc4ccc(I)cc43)cc1Br)c1nnc(C)n1-2 [Compound 11]
efficiency of BRD2 degradation, 10 versus iodo analog 11 ([2]; 6 h): comparable efficiency of BRD2 degradation | BRD2 degradation in DCAF11 knockout (KO1 and KO2) KBM7 cells [3]: abolished

Cc1sc2c(c1C)C(c1ccc(Cl)cc1)=NC(CC(=O)NCCOCCOCCOCCOc1c(Br)cc(C=C3C(=O)N(c4ccccc4)c4ccccc43)cc1Br)c1nnc(C)n1-2 (stereo not drawn) [Compound 49]
remaining activity at 3 µM ([2]; Jurkat, 6 h, 3 μM, 6 h, Fig. 4j, read-out: BRD2/Vinculin intensity (relative to DMSO control group)): 12.6%

Cc1ccc(-n2nc3c(=O)n(CCCC(=O)NCCc4ccc(C(=O)NCCOCCOCCOCCOc5c(Br)cc(C=C6C(=O)Nc7cc(Br)ccc76)cc5Br)cc4)nc(C)c3c2C)cc1 [Compound 54]
PDEδ degradation activity compared with degrader 5 [1]: comparable or better degradation activity | completeness of PDEδ degradation [1]: did not induce complete degradation

Cc1ccc(-n2nc3c(=O)n(CCCC(=O)NCCc4ccc(C(=O)NCCOCCOCCOCCOc5c(Br)cc(C=C6C(=O)N(c7ccccc7)c7ccccc76)cc5Br)cc4)nc(C)c3c2C)cc1 [Compound 55]
PDEδ degradation activity compared with degrader 5 [1]: comparable or better degradation activity | completeness of PDEδ degradation [1]: did not induce complete degradation

Cc1sc2c(c1C)C(c1ccc(Cl)cc1)=N[C@@H](CC(=O)OC(C)(C)C)c1nnc(C)n1-2 [JQ1, reference compound]
BRD2 protein levels, ligands alone or in combination ([2]; 3 μM, 4 h): did not reduce BRD2 protein levels | Relative cell viability (%) ([4]; 10 nM, 0.01 µM): 100.371% and 106.106% | Relative cell viability (%) ([4]; 30 nM, 0.03 µM): 87.8283% and 96.2473% | Relative cell viability (%) ([4]; 100 nM, 0.1 µM): 64.4714% and 60.7516% | Relative cell viability (%) ([4]; 300 nM, 0.3 µM): 45.1617% and 37.3276% | Relative cell viability (%) ([4]; 1000 nM, 1 µM): 18.9902% and 17.7354% | Relative cell viability (%) ([4]; 3000 nM, 3 µM): 9.435% and 7.082% | Relative cell viability (%) ([4]; 10000 nM, 10 µM): 4.364% and 3.464% | Relative cell viability (%) ([4]; 30000 nM, 30 µM): 1.255% and 1.237% | Cell viability (%) relative to DMSO ([4]; concentration 10 nmol/L): 103.479% and 107.527% | Cell viability (%) relative to DMSO ([4]; concentration 30 nmol/L): 101.884% and 107.914% | Cell viability (%) relative to DMSO ([4]; concentration 100 nmol/L): 89.9727% and 100.534% | Cell viability (%) relative to DMSO ([4]; concentration 300 nmol/L): 75.4252% and 84.9435% | Cell viability (%) relative to DMSO ([4]; concentration 1000 nmol/L): 55.019% and 62.5193% | Cell viability (%) relative to DMSO ([4]; concentration 3000 nmol/L): 46.7418% and 50.7086% | Cell viability (%) relative to DMSO ([4]; concentration 10000 nmol/L): 42.9072% and 46.8783% | Cell viability (%) relative to DMSO ([4]; concentration 30000 nmol/L): 37.1426% and 41.0159% | viability at 72 h, 10 nmol/L ([5]; concentration 10 nmol/L, individual replicates, Supplementary Fig. 7g, read-out: Cell viability (%) relative to DMSO): 94.3% | viability at 72 h, 30 nmol/L ([5]; concentration 30 nmol/L, individual replicates, Supplementary Fig. 7g, read-out: Cell viability (%) relative to DMSO): 90.8% | viability at 72 h, 100 nmol/L ([5]; concentration 100 nmol/L, individual replicates, Supplementary Fig. 7g, read-out: Cell viability (%) relative to DMSO): 82.6% | viability at 72 h, 300 nmol/L ([5]; concentration 300 nmol/L, individual replicates, Supplementary Fig. 7g, read-out: Cell viability (%) relative to DMSO): 69% | viability at 72 h, 1000 nmol/L ([5]; concentration 1000 nmol/L, individual replicates, Supplementary Fig. 7g, read-out: Cell viability (%) relative to DMSO): 54.6% | viability at 72 h, 3000 nmol/L ([5]; concentration 3000 nmol/L, individual replicates, Supplementary Fig. 7g, read-out: Cell viability (%) relative to DMSO): 46% | viability at 72 h, 10000 nmol/L ([5]; concentration 10000 nmol/L, individual replicates, Supplementary Fig. 7g, read-out: Cell viability (%) relative to DMSO): 46.5% | viability at 72 h, 30000 nmol/L ([5]; concentration 30000 nmol/L, individual replicates, Supplementary Fig. 7g, read-out: Cell viability (%) relative to DMSO): 40.9% | viability at 72 h, 0.01 µM ([5]; 72 h, 10 nM, Fig. 4k, read-out: Relative cell viability (%)): 89.4% | viability at 72 h, 0.03 µM ([5]; 72 h, 30 nM, Fig. 4k, read-out: Relative cell viability (%)): 77.8% | viability at 72 h, 0.1 µM ([5]; 72 h, 100 nM, Fig. 4k, read-out: Relative cell viability (%)): 52.1% | viability at 72 h, 0.3 µM ([5]; 72 h, 300 nM, Fig. 4k, read-out: Relative cell viability (%)): 35% | viability at 72 h, 1 µM ([5]; 72 h, 1000 nM, Fig. 4k, read-out: Relative cell viability (%)): 18.1% | viability at 72 h, 3 µM ([5]; 72 h, 3000 nM, Fig. 4k, read-out: Relative cell viability (%)): 8.86% | viability at 72 h, 10 µM ([5]; 72 h, 10000 nM, Fig. 4k, read-out: Relative cell viability (%)): 4.59% | viability at 72 h, 30 µM ([5]; 72 h, 30000 nM, Fig. 4k, read-out: Relative cell viability (%)): 1.85%

Cc1ncsc1-c1ccc(CNC(=O)[C@@H]2C[C@@H](O)CN2C(=O)[C@@H](NC(=O)COCCOCCOCCNC(=O)C[C@@H]2N=C(c3ccc(Cl)cc3)c3c(sc(C)c3C)-n3c(C)nnc32)C(C)(C)C)cc1 [MZ1, reference compound]
BRD2 levels after washout ([2]; 10 μM, 5 h prior to washout): can be washed out
